{"source": "ChEMBL document CHEMBL1201862", "about": "“PubChem BioAssay data set” (2004)", "key": {"[1]": {"biological_target": "T1, Corticotropin-releasing factor receptor 2/Corticotropin-releasing factor-binding protein (Homo sapiens, UniProt P24387+Q13324)", "T1 sequence (Q13324 whole entry)": "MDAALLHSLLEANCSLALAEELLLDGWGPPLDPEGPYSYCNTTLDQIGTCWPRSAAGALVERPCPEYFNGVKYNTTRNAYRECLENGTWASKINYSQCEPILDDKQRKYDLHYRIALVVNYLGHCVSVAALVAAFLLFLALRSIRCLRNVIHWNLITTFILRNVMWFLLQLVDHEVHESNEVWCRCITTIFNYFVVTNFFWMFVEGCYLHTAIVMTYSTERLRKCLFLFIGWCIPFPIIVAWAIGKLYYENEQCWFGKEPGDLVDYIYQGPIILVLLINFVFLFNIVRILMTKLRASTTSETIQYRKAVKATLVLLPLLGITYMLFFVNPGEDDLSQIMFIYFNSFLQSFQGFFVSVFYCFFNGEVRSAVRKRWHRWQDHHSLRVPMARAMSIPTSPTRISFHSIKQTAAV", "T1 sequence (P24387 whole entry)": "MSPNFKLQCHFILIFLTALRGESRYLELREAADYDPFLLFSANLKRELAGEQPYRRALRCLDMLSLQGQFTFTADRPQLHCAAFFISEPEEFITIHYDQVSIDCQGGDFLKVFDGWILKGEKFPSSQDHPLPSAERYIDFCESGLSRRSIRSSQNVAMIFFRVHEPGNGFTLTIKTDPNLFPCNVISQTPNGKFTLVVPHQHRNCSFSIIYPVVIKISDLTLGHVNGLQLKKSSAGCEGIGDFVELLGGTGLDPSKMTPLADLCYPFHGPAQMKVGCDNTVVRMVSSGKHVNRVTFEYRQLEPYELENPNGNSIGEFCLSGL", "assay": "activators of CRF receptor 2 with binding protein – uHTS hits, confirmation (AID 602473)", "format": "functional", "conditions": "read-out: EC50_Mean"}, "[2]": {"biological_target": "Melanin-concentrating hormone receptor 1 (Homo sapiens, UniProt Q99705)", "sequence (Q99705 whole entry)": "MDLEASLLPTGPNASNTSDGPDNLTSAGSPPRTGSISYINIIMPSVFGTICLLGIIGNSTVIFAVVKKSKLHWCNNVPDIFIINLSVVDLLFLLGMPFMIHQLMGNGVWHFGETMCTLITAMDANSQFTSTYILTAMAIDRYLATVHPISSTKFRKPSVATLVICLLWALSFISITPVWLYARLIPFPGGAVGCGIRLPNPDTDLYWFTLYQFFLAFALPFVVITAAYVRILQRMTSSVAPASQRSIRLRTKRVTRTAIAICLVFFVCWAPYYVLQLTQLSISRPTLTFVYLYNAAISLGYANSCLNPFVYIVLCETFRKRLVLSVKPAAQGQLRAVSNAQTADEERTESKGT", "assay": "Fluorescence-based counterscreen for antagonists of the G-protein coupled receptor 7 (GPR7): cell-based high throughput dose response assay to identify antagonists of the melanin-concentrating hormone receptor 1 (MCHR1).", "format": "functional"}, "[3]": {"biological_target": "T2, Neuropeptides B/W receptor type 1 (Homo sapiens, UniProt P48145)", "T2 sequence (P48145 whole entry)": "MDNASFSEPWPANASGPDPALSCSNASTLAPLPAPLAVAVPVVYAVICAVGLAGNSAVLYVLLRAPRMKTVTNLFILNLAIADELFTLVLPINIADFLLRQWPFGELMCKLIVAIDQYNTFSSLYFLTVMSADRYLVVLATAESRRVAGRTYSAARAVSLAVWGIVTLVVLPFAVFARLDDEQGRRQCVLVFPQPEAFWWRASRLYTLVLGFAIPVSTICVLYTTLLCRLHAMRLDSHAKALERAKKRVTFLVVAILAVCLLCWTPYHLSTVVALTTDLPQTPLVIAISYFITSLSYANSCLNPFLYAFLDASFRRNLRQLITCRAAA", "assay": "Fluorescence-based dose response cell-based high throughput screening assay to identify antagonists of the G-protein coupled receptor 7 (GPR7). [Related pubchem assays: 1952 (Screening assay (GPR7 antagonists).), 1880 (Summary AID.)]", "format": "functional"}, "Cytochrome P450 2C9": {"biological_target": "Cytochrome P450 2C9 (Homo sapiens, UniProt P11712)", "sequence (P11712 whole entry)": "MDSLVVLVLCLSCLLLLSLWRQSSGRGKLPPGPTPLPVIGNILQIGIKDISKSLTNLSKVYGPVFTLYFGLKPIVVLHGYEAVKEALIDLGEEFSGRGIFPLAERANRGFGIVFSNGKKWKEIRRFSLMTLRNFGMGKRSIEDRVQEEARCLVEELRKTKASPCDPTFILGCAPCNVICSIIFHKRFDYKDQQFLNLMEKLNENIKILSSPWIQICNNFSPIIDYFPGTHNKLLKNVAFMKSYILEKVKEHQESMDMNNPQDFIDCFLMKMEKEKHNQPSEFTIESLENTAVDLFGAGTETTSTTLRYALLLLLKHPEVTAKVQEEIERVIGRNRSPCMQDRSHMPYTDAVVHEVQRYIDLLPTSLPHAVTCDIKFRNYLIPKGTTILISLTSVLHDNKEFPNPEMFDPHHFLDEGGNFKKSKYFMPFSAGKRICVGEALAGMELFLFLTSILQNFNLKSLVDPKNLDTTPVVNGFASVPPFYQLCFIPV", "conditions": "Potency"}, "HEK293 [4]": {"test_system": "HEK293", "assay": "cells", "conditions": "Homo sapiens"}, "[5]": {"biological_target": "T3, Heat shock factor protein 1 (Mus musculus, UniProt P38532)", "T3 sequence (P38532 whole entry)": "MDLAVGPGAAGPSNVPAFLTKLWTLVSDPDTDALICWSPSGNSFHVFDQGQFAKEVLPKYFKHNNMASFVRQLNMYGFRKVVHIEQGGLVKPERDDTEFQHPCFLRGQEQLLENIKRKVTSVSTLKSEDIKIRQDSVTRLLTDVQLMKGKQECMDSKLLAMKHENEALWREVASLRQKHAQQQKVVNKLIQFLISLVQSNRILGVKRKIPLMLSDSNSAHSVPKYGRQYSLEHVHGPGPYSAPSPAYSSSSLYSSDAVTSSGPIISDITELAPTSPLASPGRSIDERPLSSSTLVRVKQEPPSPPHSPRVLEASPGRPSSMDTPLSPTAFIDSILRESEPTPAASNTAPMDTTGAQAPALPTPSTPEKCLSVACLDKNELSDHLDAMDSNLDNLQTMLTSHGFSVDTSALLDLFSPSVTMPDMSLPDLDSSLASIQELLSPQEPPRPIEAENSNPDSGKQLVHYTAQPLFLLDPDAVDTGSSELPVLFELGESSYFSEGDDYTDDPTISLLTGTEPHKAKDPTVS", "assay": "enhancement of HSF1-driven luciferase signal – cell-based, NIH3T3, luminescence, dose retest, confirmation (AID 435004);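 also: stress induced by proteasome inhibitor MG132 added 30 min after compound; actives raise luminescence as potentiators of the MG132 stress response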", "format": "functional"}, "HEK293 [6]": {"test_system": "HEK293", "assay": "cells", "format": "functional, cell-based", "conditions": "Homo sapiens"}, "[7]": {"assay": "DRD fibroblast viability loss – cell-based, non-viral oncogenic, luminescence, dose response (AID 1934)", "format": "functional", "conditions": "Homo sapiens"}, "Protein RecA": {"biological_target": "T4, Protein RecA (Mycobacterium tuberculosis, UniProt P9WHJ3)", "T4 sequence (P9WHJ3 whole entry)": "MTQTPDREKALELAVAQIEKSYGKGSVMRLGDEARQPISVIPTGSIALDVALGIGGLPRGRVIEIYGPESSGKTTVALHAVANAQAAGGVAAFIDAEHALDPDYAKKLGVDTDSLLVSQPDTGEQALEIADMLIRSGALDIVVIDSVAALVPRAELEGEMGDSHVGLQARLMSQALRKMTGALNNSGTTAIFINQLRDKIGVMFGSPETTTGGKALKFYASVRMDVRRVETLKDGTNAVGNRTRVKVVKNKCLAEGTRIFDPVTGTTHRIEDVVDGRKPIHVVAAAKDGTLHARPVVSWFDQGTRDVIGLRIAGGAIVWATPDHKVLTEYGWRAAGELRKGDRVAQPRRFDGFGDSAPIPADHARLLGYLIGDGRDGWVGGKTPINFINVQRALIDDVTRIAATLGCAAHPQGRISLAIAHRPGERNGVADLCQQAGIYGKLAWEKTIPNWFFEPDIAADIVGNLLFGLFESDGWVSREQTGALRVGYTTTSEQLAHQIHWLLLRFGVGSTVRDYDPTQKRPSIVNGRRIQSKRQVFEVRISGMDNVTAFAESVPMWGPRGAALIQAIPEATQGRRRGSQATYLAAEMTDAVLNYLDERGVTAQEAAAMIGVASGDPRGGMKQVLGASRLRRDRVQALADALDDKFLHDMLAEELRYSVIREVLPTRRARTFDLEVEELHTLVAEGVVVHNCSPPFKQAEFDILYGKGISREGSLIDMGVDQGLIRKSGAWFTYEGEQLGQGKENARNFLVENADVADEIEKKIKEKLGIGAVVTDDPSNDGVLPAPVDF", "assay": "Fluorescence Cell-Free Homogeneous Dose Retest to Identify Inhibitors of RecA-Intein Splicing Activity. [Related pubchem assays (depositor defined):AID2097, AID2223, AID489010, AID492950]", "format": "functional"}, "BJ [8]": {"test_system": "BJ", "assay": "growth inhibition of engineered Ras-driven BJ cells – cell-based, alamar blue fluorescence, cherrypicked samples, dose response (AID 2631)", "format": "functional", "conditions": "Homo sapiens"}, "[9]": {"biological_target": "Transitional endoplasmic reticulum ATPase (Homo sapiens, UniProt P55072, C522A)", "sequence (P55072 2-806 C522A limits assumed)": "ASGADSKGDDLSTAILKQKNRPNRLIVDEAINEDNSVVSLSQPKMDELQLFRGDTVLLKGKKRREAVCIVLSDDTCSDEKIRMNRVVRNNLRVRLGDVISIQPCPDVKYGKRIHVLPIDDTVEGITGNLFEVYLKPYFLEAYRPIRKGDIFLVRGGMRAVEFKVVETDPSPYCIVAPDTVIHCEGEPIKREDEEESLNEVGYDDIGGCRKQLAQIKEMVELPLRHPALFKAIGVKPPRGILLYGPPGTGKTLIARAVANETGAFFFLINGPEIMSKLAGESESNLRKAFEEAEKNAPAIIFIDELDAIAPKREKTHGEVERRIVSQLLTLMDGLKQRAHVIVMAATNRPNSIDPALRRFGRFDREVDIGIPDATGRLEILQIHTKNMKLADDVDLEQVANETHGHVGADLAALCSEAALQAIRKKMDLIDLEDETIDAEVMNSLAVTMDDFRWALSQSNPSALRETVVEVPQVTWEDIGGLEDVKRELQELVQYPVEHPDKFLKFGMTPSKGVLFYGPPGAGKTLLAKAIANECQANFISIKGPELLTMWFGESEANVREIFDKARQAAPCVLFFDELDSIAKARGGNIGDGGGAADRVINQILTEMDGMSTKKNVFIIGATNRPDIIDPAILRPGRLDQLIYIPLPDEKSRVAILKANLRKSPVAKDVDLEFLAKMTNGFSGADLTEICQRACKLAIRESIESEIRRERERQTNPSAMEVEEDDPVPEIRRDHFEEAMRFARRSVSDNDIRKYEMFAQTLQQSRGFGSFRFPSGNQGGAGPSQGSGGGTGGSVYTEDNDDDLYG", "assay": "C522A mutant p97 ATPase inhibitors, dose response, counter-screen for p97 inhibitor project, biochemical, luminescence (AID 1544)"}, "Vero": {"test_system": "Vero", "assay": "cells", "format": "functional", "conditions": "Chlorocebus sabaeus"}, "[10]": {"biological_target": "Nucleotide-binding oligomerization domain-containing protein 1 (Homo sapiens, UniProt Q9Y239)", "sequence (Q9Y239 whole entry, the tested form may be a part)": "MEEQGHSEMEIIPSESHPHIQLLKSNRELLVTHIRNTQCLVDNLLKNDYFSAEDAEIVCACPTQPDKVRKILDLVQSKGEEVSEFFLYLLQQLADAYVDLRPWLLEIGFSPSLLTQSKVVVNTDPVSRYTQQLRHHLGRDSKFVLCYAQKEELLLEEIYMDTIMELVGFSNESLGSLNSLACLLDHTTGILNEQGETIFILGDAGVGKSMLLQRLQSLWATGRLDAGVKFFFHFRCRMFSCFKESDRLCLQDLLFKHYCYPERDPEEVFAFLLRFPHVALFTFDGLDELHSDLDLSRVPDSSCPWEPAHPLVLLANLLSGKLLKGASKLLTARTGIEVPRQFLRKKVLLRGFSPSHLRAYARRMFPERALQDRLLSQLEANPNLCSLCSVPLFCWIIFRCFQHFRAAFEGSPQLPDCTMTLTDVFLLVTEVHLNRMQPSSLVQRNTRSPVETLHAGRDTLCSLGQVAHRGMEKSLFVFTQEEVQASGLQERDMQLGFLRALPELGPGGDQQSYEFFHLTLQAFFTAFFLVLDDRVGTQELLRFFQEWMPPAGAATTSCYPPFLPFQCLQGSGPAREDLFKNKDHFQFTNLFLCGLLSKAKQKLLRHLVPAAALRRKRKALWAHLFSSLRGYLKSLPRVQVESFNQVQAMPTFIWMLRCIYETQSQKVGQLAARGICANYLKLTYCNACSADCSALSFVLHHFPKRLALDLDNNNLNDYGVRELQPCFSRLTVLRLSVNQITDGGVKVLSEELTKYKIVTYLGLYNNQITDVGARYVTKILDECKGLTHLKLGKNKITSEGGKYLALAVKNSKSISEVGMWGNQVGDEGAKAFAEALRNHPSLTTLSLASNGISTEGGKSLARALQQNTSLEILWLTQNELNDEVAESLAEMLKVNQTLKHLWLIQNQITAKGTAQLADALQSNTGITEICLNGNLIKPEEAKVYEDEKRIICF", "assay": "blockers of NOD1 pathway activity – revised, SAR follow-up (AID 2333)", "format": "functional"}, "[11]": {"biological_target": "Transitional endoplasmic reticulum ATPase (Homo sapiens, UniProt P55072)", "sequence (P55072 whole entry)": "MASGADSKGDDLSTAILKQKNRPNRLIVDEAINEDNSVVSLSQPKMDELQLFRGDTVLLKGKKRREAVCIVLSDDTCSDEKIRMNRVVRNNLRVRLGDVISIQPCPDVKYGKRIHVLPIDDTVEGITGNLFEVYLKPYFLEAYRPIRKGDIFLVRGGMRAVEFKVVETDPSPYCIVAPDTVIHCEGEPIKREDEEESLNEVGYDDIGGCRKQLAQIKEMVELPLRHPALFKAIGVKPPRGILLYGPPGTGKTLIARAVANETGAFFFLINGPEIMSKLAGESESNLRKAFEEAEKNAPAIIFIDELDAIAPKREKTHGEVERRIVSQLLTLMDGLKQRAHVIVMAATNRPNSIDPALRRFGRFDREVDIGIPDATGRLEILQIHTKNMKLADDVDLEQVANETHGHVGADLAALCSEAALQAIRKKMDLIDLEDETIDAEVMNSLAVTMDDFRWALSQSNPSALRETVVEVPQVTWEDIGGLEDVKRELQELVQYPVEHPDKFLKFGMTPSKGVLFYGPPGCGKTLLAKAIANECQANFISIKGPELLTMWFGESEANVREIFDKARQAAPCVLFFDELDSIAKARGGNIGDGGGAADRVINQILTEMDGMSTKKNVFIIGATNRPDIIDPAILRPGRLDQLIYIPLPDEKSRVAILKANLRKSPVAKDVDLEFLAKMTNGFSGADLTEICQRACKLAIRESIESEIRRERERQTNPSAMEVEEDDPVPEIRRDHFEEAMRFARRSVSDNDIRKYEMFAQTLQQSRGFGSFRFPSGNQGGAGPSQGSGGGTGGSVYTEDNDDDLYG", "assay": "p97 ATPase inhibitors, dose response, biochemical (AID 1534)"}, "HEK293 [12]": {"test_system": "HEK293", "assay": "inhibition of NOD1-driven NF-kB reporter – cell-based, luminescence, uHTS, primary screen (AID 1578)", "format": "functional", "conditions": "Homo sapiens"}, "[13]": {"assay": "Luminescent dose response cell-based high throughput screening assay for inhibitors of the Janus kinase 2 mutant JAK2V617F. [Related pubchem assays: 1446 (Primary screen.), 1521 (Confirmation assay.), 1486 (Counter screen.)]", "format": "functional"}, "HEK293 [14]": {"test_system": "HEK293", "assay": "cells", "format": "functional, cell-based", "conditions": "Homo sapiens", "remark": "listed apart in the source"}, "HEK293 [15]": {"test_system": "HEK293", "assay": "NOD2 signaling inhibitors in MDP-stimulated cells, cell-based, uHTS, luminescence (AID 2001)", "format": "functional", "conditions": "Homo sapiens"}, "BJ [16]": {"test_system": "BJ", "assay": "BJ-TERT fibroblast viability loss – cell-based, RAS-independent, luminescence, dose response (AID 1933)", "format": "functional", "conditions": "Homo sapiens"}, "BJ [17]": {"test_system": "BJ", "assay": "cells", "format": "functional, cell-based", "conditions": "Homo sapiens"}, "Tumor necrosis factor": {"biological_target": "Tumor necrosis factor (Homo sapiens, UniProt P01375)", "sequence (P01375 whole entry)": "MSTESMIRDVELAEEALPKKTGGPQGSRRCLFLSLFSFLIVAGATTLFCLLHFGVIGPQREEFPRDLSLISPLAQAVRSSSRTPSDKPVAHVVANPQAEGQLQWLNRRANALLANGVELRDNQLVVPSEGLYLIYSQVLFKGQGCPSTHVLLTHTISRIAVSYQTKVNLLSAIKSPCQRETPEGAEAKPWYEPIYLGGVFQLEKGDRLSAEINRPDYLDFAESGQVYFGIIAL", "assay": "analog potency on TNFa NF-kB signaling – cell-based, revised, SAR follow-up (AID 2337)", "format": "functional"}, "BJ [18]": {"test_system": "BJ", "assay": "BJ-TERT-LT-ST fibroblast viability loss – cell-based, RAS-independent, luminescence, dose response (AID 1935);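 also: BJ fibroblasts immortalized with TERT plus LT and ST oncogenes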", "format": "functional", "conditions": "Homo sapiens"}, "[19]": {"biological_target": "T5, Replicative DNA helicase DnaB (Mycobacterium tuberculosis, UniProt P9WMR3)", "T5 sequence (P9WMR3 whole entry)": "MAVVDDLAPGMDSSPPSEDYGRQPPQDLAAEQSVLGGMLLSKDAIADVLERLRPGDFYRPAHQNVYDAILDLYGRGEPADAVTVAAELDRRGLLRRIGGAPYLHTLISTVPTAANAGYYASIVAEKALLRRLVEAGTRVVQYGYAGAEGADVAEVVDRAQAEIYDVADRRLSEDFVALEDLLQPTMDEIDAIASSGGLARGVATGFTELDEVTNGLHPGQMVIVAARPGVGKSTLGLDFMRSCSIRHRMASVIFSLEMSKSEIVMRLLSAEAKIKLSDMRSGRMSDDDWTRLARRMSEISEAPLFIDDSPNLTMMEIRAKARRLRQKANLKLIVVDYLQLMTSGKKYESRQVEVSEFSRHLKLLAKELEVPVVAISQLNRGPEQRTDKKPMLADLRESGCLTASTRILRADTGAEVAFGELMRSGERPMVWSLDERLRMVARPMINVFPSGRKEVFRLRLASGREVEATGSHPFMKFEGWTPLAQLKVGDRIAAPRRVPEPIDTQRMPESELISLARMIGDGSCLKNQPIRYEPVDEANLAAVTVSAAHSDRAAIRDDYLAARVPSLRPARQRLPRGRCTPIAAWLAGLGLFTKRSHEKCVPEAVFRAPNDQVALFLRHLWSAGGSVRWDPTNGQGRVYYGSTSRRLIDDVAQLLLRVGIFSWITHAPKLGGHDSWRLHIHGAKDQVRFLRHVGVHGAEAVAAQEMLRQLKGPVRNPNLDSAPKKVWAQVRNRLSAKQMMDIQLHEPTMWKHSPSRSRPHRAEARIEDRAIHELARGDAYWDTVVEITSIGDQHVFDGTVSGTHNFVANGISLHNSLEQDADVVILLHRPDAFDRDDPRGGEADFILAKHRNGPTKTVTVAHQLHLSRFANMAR", "assay": "DnaB intein splicing inhibitors, dose response, biochemical, cell-free fluorescence (AID 449749)", "format": "functional"}}, "note": "Active and inactive are the calls of the source.", "data": [{"smiles": "Cc1cccc(NC(=S)NC(=O)Cc2ccccc2)c1C", "values": [{"measurement": "EC50", "setting": "[1]", "result": "9.75 µM (active)"}, {"measurement": "IC50", "setting": "[2]", "result": "13.3 µM (not active)"}, {"measurement": "IC50", "setting": "[3]", "result": "6.65 µM (active)"}]}, {"smiles": "CCC[C@@H]1O[C@@H]2C[C@@H]3[C@@H]4CCC5=CC(=O)C=C[C@@]5(C)[C@H]4[C@H](O)C[C@@]3(C)[C@@]2(C(=O)CO)O1", "values": [{"measurement": "AC50", "setting": "Cytochrome P450 2C9", "result": "25.1 µM (inconclusive)"}]}, {"smiles": "Nc1nc(CCl)nc(Nc2ccc3ccccc3c2)n1", "values": [{"measurement": "IC50", "setting": "HEK293 [4]", "result": "> 20 µM (inactive)"}, {"measurement": "EC50", "setting": "[5]", "result": "> 260 µM (inactive)"}, {"measurement": "IC50", "setting": "HEK293 [6]", "result": "> 20 µM (inactive)"}, {"measurement": "EC50", "setting": "[7]", "result": "289 nM (active)"}, {"measurement": "EC50", "setting": "Protein RecA", "result": "19.4 µM (active)"}, {"measurement": "EC50", "setting": "BJ [8]", "result": "4.62 µM (active)"}, {"measurement": "IC50", "setting": "[9]", "result": "> 50 µM (not active)"}, {"measurement": "CC50", "setting": "Vero", "result": "1.24 µM (active)"}, {"measurement": "IC50", "setting": "[10]", "result": "3.43 µM (active)"}, {"measurement": "IC50", "setting": "[11]", "result": "> 50 µM (not active)"}, {"measurement": "EC50", "setting": "HEK293 [12]", "result": "11.1 µM (active)"}, {"measurement": "IC50", "setting": "[13]", "result": "476 nM (active)"}, {"measurement": "IC50", "setting": "HEK293 [14]", "result": "5.4 µM (active)"}, {"measurement": "IC50", "setting": "HEK293 [15]", "result": "7.7 µM (active)"}, {"measurement": "EC50", "setting": "BJ [16]", "result": "< 120 nM (active)"}, {"measurement": "EC50", "setting": "BJ [17]", "result": "717 nM (inconclusive)"}, {"measurement": "IC50", "setting": "Tumor necrosis factor", "result": "11.1 µM (active)"}, {"measurement": "EC50", "setting": "BJ [18]", "result": "8.32 µM (inconclusive)"}, {"measurement": "AC50", "setting": "[19]", "result": "15.4 µM (active)"}]}]}
